Results reported in patent US11607421B2, “Ethanolamine-based lipid biosynthetic compounds, method of making and use thereof” (Metanoi Therapeutics, Inc., priority 2016, dated 2023).
Converted amounts (≈) assume the structure as drawn.

Key:
PC-3 cells [1] = assay: MTT cell proliferation assay; type: cell-based, human
Method: Next, a clonogenic cell survival assay was performed to assess the reproductive capacity of cells upon drug removal.
(§1) After 48 h, drug containing medium was replaced by medium containing MTT (tetrazolium bromide) at a concentration of 0.5 mg/ml. The yellow tetrazolium salt is reduced to insoluble purple formazan by viable cells. After 4 h of incubation in dark, formazan crystals produced by viable cells were dissolved by 200 μl DMSO and the amount of formazan crystals formed was quantified by recording the absorbance at 570 nm using multi-well plate reader. […] After 10 days, colonies were fixed with 4% formaldehyde, stained with crystal violet and counted.

plasma proteins = assay: Binding to proteins in plasma (ultrafiltration); type: in vitro ADME; conditions: pH 7.4, 37° C., 30 min
Method: Plasma from human, dog, rat and mouse were thawed and incubated at 37° C. The pH of the plasma was adjusted to 7.4 using dilute hydrochloric acid. A 5 μL aliquot of ethanolamine (2 mM) was spiked into 995 μL of plasma and incubated at 37° C. for 30 min in CO2 incubator. One mL aliquots of plasma were transferred to ultrafiltration tubes for analysis. All ultrafiltration tubes were centrifuged at 1000 g for 20 min. Samples from top and bottom chamber of ultrafiltration tube were collected. Equal volume of blank plasma and ultrafiltrate were mixed to ultrafiltrate and plasma to make the matrix same. Samples were processed by using acetonitrile containing internal standard and subjected to LC/MS/MS analysis.

PC-3 cells [2] = assay: Intracellular levels of Etn and PhosE by LC-MS/MS; type: cell-based, human; conditions: 1 mg/ml, 48 h, pH 7.4
DU145 = assay: MTT cell proliferation assay; type: cell-based, human; conditions: 0.5 mg/ml Etn, 48 h; range given for PC-3, DU145 and C4-2B together
Method: as §1

[3] = tested on: p53, p21, Bax, pBcl-2, c-PARP, Bim, Bid, HIF1-α; assay: Immunoblot of PC-3-luc tumor lysates; type: in vivo, mice
Method: (§2) OCR was measured using an oxygen electrode.
Since p21, Bax and pBcl2 are downstream effectors of p53, p53 expression levels were examined in control and Etn-treated tumors, as well as control and Etn-treated PC-3 cells.
(§3) To test this hypothesis, HIF1-α expression levels were analyzed in Etn-treated tumors and PC-3 cells. […] DMOG, an HIF1-α activator, was then employed to test whether Etn-mediated cell death in PC-3 cells was associated with HIF1-α stabilization (active HIF1-α signaling).
Proteins were resolved by polyacrylamide gel electrophoresis and transferred onto polyvinylidene difluoride membranes (Millipore, Billerica, Mass., USA). The membranes were blocked in Tris-buffered saline containing 0.05% Tween-20 and 5% fat-free dry milk and incubated first with primary antibodies and then with horseradish peroxidase-conjugated secondary antibodies. Specific proteins were visualized with enhanced chemiluminescence detection reagent according to the manufacturer's instructions (Pierce Biotechnology, Rockford, Ill., USA).

CYP2A6 = CYP2A6 (Homo sapiens, UniProt P11509); assay: CYP inhibition in human liver microsomes
CYP2E1 = CYP2E1 (Homo sapiens, UniProt P05181); assay: CYP inhibition in human liver microsomes
PC-3-luc tumors = assay: Glucose and glutamine contents in tumors (LC-MS/MS); conditions: 40 mg/kg Etn-treated tumors vs untreated control
PC-3 cells [4] = assay: Annexin V binding assay (flow cytometry); type: cell-based, human; conditions: 2.0 mg/ml Etn
Method: Annexin V binding assays were performed for control and 2.0 mg/ml Etn-treated cells along with counterstaining with 7-AAD to distinguish between dead and apoptotic cells. Annexin V positive cells were analyzed using flow cytometry. Representative scatter plots for control and Etn-treated cells stained with 7-AAD and annexin V are shown.
Annexin-V is known to bind to phosphatidylserine (PS) lipids which flip to the outer leaflet of plasma membrane in apoptotic cells (Vermes I. et al., J. Immunol. Methods, 1995, vol. 184, pp. 39-51). Annexin-V binding to PS is therefore a good indicator of cells undergoing apoptosis.

PC-3-luc = PC-3-luc prostate tumor xenograft
CYP2B6 = CYP2B6 (Homo sapiens, UniProt P20813); assay: CYP inhibition in human liver microsomes
HCT116 = HCT116 colon tumor xenograft; conditions: 40 mg/kg Etn oral, 2 weeks
[5] = Acute toxicity, single oral limit dose; type: in vivo, Sprague-Dawley (SD) rats; conditions: single oral dose of 5 g/kg, five male and five female rats, monitored one week
CFPAC-1 = assay: MTT cell proliferation assay; type: cell-based; conditions: Homo sapiens, 48 h, pH 7.4
Method: as §1

OVCAR-5 = assay: MTT cell proliferation assay; type: cell-based; conditions: Homo sapiens, 48 h, pH 7.4
Method: as §1

MDA-MB-468 = assay: MTT cell proliferation assay; type: cell-based; conditions: Homo sapiens, 48 h, pH 7.4
Method: as §1

C4-2B = assay: MTT cell proliferation assay; type: cell-based; conditions: 0.5 mg/ml Etn, 48 h; range given for PC-3, DU145 and C4-2B together
Method: as §1

[6] = tested on: p21, PARP1, Bcl-2, HIF1-α, Bax and Bid; assay: Real time-PCR transcription levels; type: cell-based, human; conditions: PC-3 cells, 2 mg/ml Etn for 48 h
Method: as §2, §3
RNA was extracted from control and 2 mg/ml Etn-treated PC-3 cells using a RNeasy kit from Qiagen (Hilden, Germany), and quantified using NanoDrop. Reverse transcription of RNA was performed for the first strand cDNA synthesis using a first strand synthesis kit (GoScript™ Reverse Transcription System-A5000) from Promega (Madison, Wis.). The quality of synthesized cDNAs was checked on an agarose gel. RT-PCR of cDNA samples (in duplicates) was performed using iQ™ SYBR® Green Supermix from Bio-Rad (Hercules, Calif.) as per manufacturer's instructions. The RT-PCR primers were designed manually, checked with the primer3 software and ordered from Sigma (St Louis, Mo.).

[7] = 40 mg/kg Etn pH 5 (phosphoric acid), oral gavage, 4 weeks

Chain of CYP2A6 (P11509 whole entry): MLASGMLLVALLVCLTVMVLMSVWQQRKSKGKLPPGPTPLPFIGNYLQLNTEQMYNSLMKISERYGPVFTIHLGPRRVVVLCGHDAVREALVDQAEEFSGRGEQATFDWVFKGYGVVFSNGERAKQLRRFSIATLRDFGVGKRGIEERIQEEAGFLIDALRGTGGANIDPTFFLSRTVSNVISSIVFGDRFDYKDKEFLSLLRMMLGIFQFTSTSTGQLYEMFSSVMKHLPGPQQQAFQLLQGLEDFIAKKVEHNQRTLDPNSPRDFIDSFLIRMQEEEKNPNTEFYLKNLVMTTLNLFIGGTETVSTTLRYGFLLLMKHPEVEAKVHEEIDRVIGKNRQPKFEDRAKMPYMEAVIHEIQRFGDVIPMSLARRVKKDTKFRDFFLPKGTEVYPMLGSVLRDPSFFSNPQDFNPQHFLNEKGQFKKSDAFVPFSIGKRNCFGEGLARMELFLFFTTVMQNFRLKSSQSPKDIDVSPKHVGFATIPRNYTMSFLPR
Chain of CYP2E1 (P05181 whole entry): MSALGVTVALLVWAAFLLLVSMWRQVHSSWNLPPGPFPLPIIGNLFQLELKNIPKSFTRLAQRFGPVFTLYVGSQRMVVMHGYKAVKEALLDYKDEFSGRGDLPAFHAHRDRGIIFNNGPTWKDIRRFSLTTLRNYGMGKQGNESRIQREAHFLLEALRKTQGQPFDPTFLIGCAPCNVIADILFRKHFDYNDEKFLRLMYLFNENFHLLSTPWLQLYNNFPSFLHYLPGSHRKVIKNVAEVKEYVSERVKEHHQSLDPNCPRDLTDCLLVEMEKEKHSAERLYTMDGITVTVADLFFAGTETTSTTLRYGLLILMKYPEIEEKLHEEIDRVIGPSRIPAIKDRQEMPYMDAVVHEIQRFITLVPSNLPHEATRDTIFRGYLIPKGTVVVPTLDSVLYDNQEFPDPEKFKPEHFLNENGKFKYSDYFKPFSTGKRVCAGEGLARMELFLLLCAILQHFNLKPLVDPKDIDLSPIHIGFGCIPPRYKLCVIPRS
Chain of CYP2B6 (P20813 whole entry): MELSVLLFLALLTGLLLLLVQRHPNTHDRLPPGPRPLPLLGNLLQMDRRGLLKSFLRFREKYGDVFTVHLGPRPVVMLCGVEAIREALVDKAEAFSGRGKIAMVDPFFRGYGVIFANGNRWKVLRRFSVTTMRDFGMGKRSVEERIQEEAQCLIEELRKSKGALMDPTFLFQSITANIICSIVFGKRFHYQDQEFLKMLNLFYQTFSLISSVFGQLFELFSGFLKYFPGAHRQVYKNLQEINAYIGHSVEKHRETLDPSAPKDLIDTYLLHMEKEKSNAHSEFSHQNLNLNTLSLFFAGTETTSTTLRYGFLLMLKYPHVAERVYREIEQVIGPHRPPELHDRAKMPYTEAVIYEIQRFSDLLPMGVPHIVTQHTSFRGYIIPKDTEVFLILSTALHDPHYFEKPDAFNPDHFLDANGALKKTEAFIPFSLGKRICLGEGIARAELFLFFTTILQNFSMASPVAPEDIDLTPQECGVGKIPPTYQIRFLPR

## NCCO [Etn, monoethanolamine]
PC-3 cells [1]; 35 μg/mL DMOG pre-treatment 4 h, then 1 and 2 mg/ml Etn with DMOG 48 h
  Etn-induced cell death with HIF1-α stabilization: more effective in reducing survival in PC-3 cells
PC-3 cells [1]; 0.5 mg/ml Etn, 48 h, pH 7.4 (siRNA experiment)
  reduction of cell survival: ~38%
PC-3 cells [1]; 0.5 mg/ml Etn, 48 h, range given for PC-3, DU145 and C4-2B together
  reduction of survival: 30-52%
PC-3 cells [1]; 1 mg/ml Etn alone, 48 h, pH 7.4
  reduction in cell proliferation: ~33%
PC-3 cells [1]; 1 mg/ml Etn in the presence of 1 μM CKI, 48 h, pH 7.4
  reduction in cell proliferation: ~17%
PC-3 cells [1]; Homo sapiens, PC-3, 48 h, pH 7.4, MTT, 48 h, pH 7.4, read-out: half-maximal concentration (IC50)
  IC50: ~880 µg/mL (≈ 14.4 mM)
PC-3 cells [1]; MTT, 48 h, pH 7.4
  half-maximal concentration (IC50): 880 µg/mL
Plasma proteins; dog plasma
  percent bound: less than 85%
Plasma proteins; human plasma
  percent bound: less than 85%
Plasma proteins; mouse plasma
  percent bound: less than 85%
Plasma proteins; rat plasma
  percent bound: less than 85%
PC-3 cells [2]
  increase in intracellular PhosE levels compared to control cells: ~40 fold
DU145
  reduction of survival: 30-52%
[3]; 40 mg/kg Etn-treated mice
  expression of cell-cycle and apoptotic markers in tumor lysates: upregulated p21, Bax, pBcl2 c-PARP, Bim and Bid
  p53 protein level in tumors: higher levels of p53 protein than untreated control tumors
[3]; Etn-treated tumors relative to untreated control tumors
  HIF1-α protein expression in tumors: Downregulation of HIF1-α protein expression
CYP2A6
  IC50: > 100 µM
CYP2E1
  IC50: > 100 µM
PC-3-luc tumors
  glucose and glutamine contents: significantly reduced
PC-3 cells [4]
  annexin-V positive cells: ~25%
PC-3-luc; 40 mg/kg Etn oral, over the course of treatment, both models
  body weight: no apparent changes in body weight
PC-3-luc; [7]
  reduction in tumor volume vs untreated control tumors: ~67%
  reduction in tumor weight vs untreated control tumors: ~55%
CYP2B6
  IC50: > 100 µM
HCT116
  body weight: did not change significantly
[5]
  acute toxicity: all rats were alive and did not display any sign of distress or toxicity
CFPAC-1
  IC50: 1900 µg/mL (≈ 31.1 mM)
OVCAR-5
  IC50: 290 µg/mL (≈ 4.75 mM)
MDA-MB-468
  IC50: 550 µg/mL (≈ 9 mM)
C4-2B
  reduction of survival: 30-52%
[6]
  reduction in HIF1-α transcript levels compared to control cells: 50 fold
  transcription levels of cell-cycle and apoptosis regulators: upregulated p21, PARP1, Bax and Bid, and downregulated Bcl-2
